Assay results from PubChem BioAssay (NCI).
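48-hour exposure; five concentrations; linearly interpolated endpoints. GI50 marks 50% less growth. At the TGI there is no net growth.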

Assays:
Assay in all cases: growth of human tumour cells (NCI), 48 h
HCT-116 colon = system: HCT-116 colon
BT-549 breast = system: BT-549 breast
SF-268 CNS = system: SF-268 CNS
SK-MEL-28 melanoma = system: SK-MEL-28 melanoma
A549 NSCLC = system: A549 NSCLC
U251 CNS = system: U251 CNS
SR leukemia = system: SR leukemia
MCF7 breast = system: MCF7 breast
IGROV1 ovarian = system: IGROV1 ovarian
HOP-62 NSCLC = system: HOP-62 NSCLC
PC-3 prostate = system: PC-3 prostate
MDA-MB-435 = system: MDA-MB-435
MOLT-4 leukemia = system: MOLT-4 leukemia
HOP-92 NSCLC = system: HOP-92 NSCLC
SK-MEL-5 melanoma = system: SK-MEL-5 melanoma
SK-MEL-2 melanoma = system: SK-MEL-2 melanoma
SNB-75 CNS = system: SNB-75 CNS
SNB-19 CNS = system: SNB-19 CNS
TK-10 renal = system: TK-10 renal
OVCAR-3 ovarian = system: OVCAR-3 ovarian
SK-OV-3 ovarian = system: SK-OV-3 ovarian
SW-620 colon = system: SW-620 colon
786-0 renal = system: 786-0 renal
HCT-15 colon = system: HCT-15 colon
OVCAR-8 ovarian = system: OVCAR-8 ovarian
DU-145 prostate = system: DU-145 prostate
COLO 205 colon = system: COLO 205 colon
MDA-MB-231 breast = system: MDA-MB-231 breast
UO-31 renal = system: UO-31 renal
UACC-62 melanoma = system: UACC-62 melanoma
UACC-257 melanoma = system: UACC-257 melanoma
CCRF-CEM leukemia = system: CCRF-CEM leukemia
NCI-H522 lung = system: NCI-H522 lung
SN12C renal = system: SN12C renal
RPMI-8226 leukemia = system: RPMI-8226 leukemia
NCI/ADR-RES ovarian = system: NCI/ADR-RES ovarian
HCC-2998 colon = system: HCC-2998 colon
M14 melanoma = system: M14 melanoma
A498 renal = system: A498 renal
OVCAR-5 ovarian = system: OVCAR-5 ovarian
HT29 colon = system: HT29 colon
RXF 393 renal = system: RXF 393 renal
OVCAR-4 ovarian = system: OVCAR-4 ovarian
SF-539 CNS = system: SF-539 CNS
KM12 colon = system: KM12 colon
CAKI-1 renal = system: CAKI-1 renal
ACHN renal = system: ACHN renal
NCI-H460 lung = system: NCI-H460 lung
HS 578T breast = system: HS 578T breast
MALME-3M melanoma = system: MALME-3M melanoma

`O=C1Nc2cc(OC(F)(F)F)ccc2Oc2ccc(-c3ccnc(N4CCNCC4)c3)cc21` gave a GI50 (HCT-116 colon) of 1 µM, a TGI (HCT-116 colon) of 2.17 µM and a GI50 (BT-549 breast) of 1.95 µM. For the same compound, the TGI (BT-549 breast) was 3.74 µM, the GI50 (SF-268 CNS) was 1.7 µM and the TGI (SF-268 CNS) was 3.48 µM. It also gave a GI50 (SK-MEL-28 melanoma) of 1.39 µM, a TGI (SK-MEL-28 melanoma) of 2.73 µM and a GI50 (A549 NSCLC) of 1.13 µM. The TGI (A549 NSCLC) was 2.51 µM, the GI50 (U251 CNS) was 1.46 µM and the TGI (U251 CNS) was 2.85 µM. For the same compound, the GI50 (SR leukemia) was 0.345 µM, the TGI (SR leukemia) was 1.82 µM and the GI50 (MCF7 breast) was 0.84 µM. For the same compound, the TGI (MCF7 breast) was over 100 µM, the GI50 (IGROV1 ovarian) was 1.2 µM and the TGI (IGROV1 ovarian) was 2.55 µM. It also gave a GI50 (HOP-62 NSCLC) of 1.6 µM, a TGI (HOP-62 NSCLC) of 3.26 µM and a GI50 (PC-3 prostate) of 1.29 µM. For the same compound, the TGI (PC-3 prostate) was 2.87 µM, the GI50 (MDA-MB-435) was 0.282 µM and the TGI (MDA-MB-435) was 1.03 µM. For the same compound, the GI50 (MOLT-4 leukemia) was 1.08 µM, the TGI (MOLT-4 leukemia) was 3.29 µM and the GI50 (HOP-92 NSCLC) was 1.17 µM. For the same compound, the TGI (HOP-92 NSCLC) was 2.51 µM, the GI50 (SK-MEL-5 melanoma) was 1.62 µM and the TGI (SK-MEL-5 melanoma) was 3.01 µM. For the same compound, the GI50 (SK-MEL-2 melanoma) was 1.47 µM, the TGI (SK-MEL-2 melanoma) was 2.93 µM and the GI50 (SNB-75 CNS) was 1.5 µM. The TGI (SNB-75 CNS) was 2.86 µM, the GI50 (SNB-19 CNS) was 1.55 µM and the TGI (SNB-19 CNS) was 3.14 µM. It also gave a GI50 (TK-10 renal) of 1.5 µM, a TGI (TK-10 renal) of 3.47 µM and a GI50 (OVCAR-3 ovarian) of 1.12 µM. For the same compound, the TGI (OVCAR-3 ovarian) was 2.49 µM, the GI50 (SK-OV-3 ovarian) was 2.57 µM and the TGI (SK-OV-3 ovarian) was 6.79 µM. It also gave a GI50 (SW-620 colon) of 0.516 µM, a TGI (SW-620 colon) of 1.73 µM and a GI50 (786-0 renal) of 1.53 µM. The TGI (786-0 renal) was 2.89 µM, the GI50 (HCT-15 colon) was 0.864 µM and the TGI (HCT-15 colon) was 4.56 µM. For the same compound, the GI50 (OVCAR-8 ovarian) was 1.58 µM, the TGI (OVCAR-8 ovarian) was 3 µM and the GI50 (DU-145 prostate) was 1.65 µM. For the same compound, the TGI (DU-145 prostate) was 3.08 µM, the GI50 (COLO 205 colon) was 1.54 µM and the TGI (COLO 205 colon) was 3.08 µM. The GI50 (MDA-MB-231 breast) was 1.61 µM, the TGI (MDA-MB-231 breast) was 3.18 µM and the GI50 (UO-31 renal) was 1.34 µM. For the same compound, the TGI (UO-31 renal) was 2.66 µM, the GI50 (UACC-62 melanoma) was 1.65 µM and the TGI (UACC-62 melanoma) was 3.15 µM. It also gave a GI50 (UACC-257 melanoma) of 1.55 µM, a TGI (UACC-257 melanoma) of 3.05 µM and a GI50 (CCRF-CEM leukemia) of 1.87 µM. The TGI (CCRF-CEM leukemia) was 6.76 µM, the GI50 (NCI-H522 lung) was 1.59 µM and the TGI (NCI-H522 lung) was 3.16 µM. The GI50 (SN12C renal) was 1.79 µM, the TGI (SN12C renal) was 3.62 µM and the GI50 (RPMI-8226 leukemia) was 1.84 µM. For the same compound, the TGI (RPMI-8226 leukemia) was 4.78 µM, the GI50 (NCI/ADR-RES ovarian) was 1.61 µM and the TGI (NCI/ADR-RES ovarian) was 3.5 µM. The GI50 (HCC-2998 colon) was 1.33 µM, the TGI (HCC-2998 colon) was 2.69 µM and the GI50 (M14 melanoma) was 1.23 µM. It also gave a TGI (M14 melanoma) of 2.54 µM, a GI50 (A498 renal) of 1.6 µM and a TGI (A498 renal) of 2.95 µM. The GI50 (OVCAR-5 ovarian) was 1.46 µM, the TGI (OVCAR-5 ovarian) was 3.29 µM and the GI50 (HT29 colon) was 0.764 µM. The TGI (HT29 colon) was 2.06 µM, the GI50 (RXF 393 renal) was 1.39 µM and the TGI (RXF 393 renal) was 2.84 µM. It also gave a GI50 (OVCAR-4 ovarian) of 1.62 µM, a TGI (OVCAR-4 ovarian) of 3.25 µM and a GI50 (SF-539 CNS) of 1.58 µM. For the same compound, the TGI (SF-539 CNS) was 2.98 µM, the GI50 (KM12 colon) was 0.9 µM and the TGI (KM12 colon) was 2.74 µM. It also gave a GI50 (CAKI-1 renal) of 1.15 µM, a TGI (CAKI-1 renal) of 2.43 µM and a GI50 (ACHN renal) of 1.68 µM. For the same compound, the TGI (ACHN renal) was 3.05 µM, the GI50 (NCI-H460 lung) was 0.655 µM and the TGI (NCI-H460 lung) was 1.94 µM. It also gave a GI50 (HS 578T breast) of 1.7 µM, a TGI (HS 578T breast) of 3.98 µM and a GI50 (MALME-3M melanoma) of 1.26 µM. It also gave a TGI (MALME-3M melanoma) of 2.74 µM.
